{"source": "patent US9771430B2", "about": "“Method of treating a metabolic disorder induced by obesity in a subject in need thereof by administering MK2/3 inhibitors” (THE TRUSTEES OF COLUMBIA UNIVERSITY IN THE CITY OF NEW YORK, priority 2011, dated 2017)", "key": {"calcineurin": {"system": "calcineurin", "assay": "Calcineurin activity in primary hepatocytes", "assay_type": "cell-based, mouse", "method": "(§1) HEK293T (ATCC) cells were cultured in DMEM containing 10% FBS (HyClone), […] penicillin-streptomycin. Mouse primary hepatocytes were isolated and cultured as previously described (18). Cellular fractionation studies were conducted as previously reported (18). For reporter studies, Ad-CRE-luc infected hepatocytes (1 pfu per cell) were exposed to glucagon (Gcg, 100 nM) for 2˜4 h. For cyclosporine A (CsA, 10 μM) or okadaic acid (OA, 100 nM) or cell permeable calcineurin autoinhibitory peptide (10 μM) or CN585 (100 μM) or Calyculin A (10 nM) or Xestospongin C (Xc, 2 μM) or H89 (30 μM) or BAPTA (50 μM) inhibition, hepatocytes were pre-treated with the inhibitors for one hour. Luciferase activities were normalized to β-galactosidase activity from adenoviral-encoded RSV β-gal. Calcineurin activity (test kit from Enzo Life Sciences) and cellular cAMP levels (test kit from Cayman Chemical Company) were measured according to manufacturer's instructions."}, "G6pc and Pck1 mRNA": {"system": "G6pc and Pck1 mRNA", "assay": "G6pc and Pck1 mRNA (RT-qPCR) in primary mouse hepatocytes", "assay_type": "cell-based", "details": "glucagon / forskolin", "method": "FIG. 32A-E. Related to FIG. 26—p38. FIG. 32A Mice were fed ad libitum or fasted for 12 h. Liver phospho-p38, total p38, p-MK2, total MK-2, and β-actin were assayed by immunoblot. FIG. 32B WT HCs were serum-depleted overnight and then incubated for 5 h with 100 nm glucagon in serum-free media with or without SB202190; or glucagon was added to HCs from P38a^fl/fl mice treated with adeno-LacZ (control) or adeno-Cre. RNA was assayed for G6pc and Pck1 mRNA (*P<0.05; mean±S.E.M.). FIG. 32C HCs from fasting WT and Camk2g^−/− mice were assayed for p-p38, total p38, and β-actin. FIG. 32D WT mice were injected i.p. with 12.5 mg kg^−1 body weight of p38 inhibitor (SB202190) or vehicle control. 12 h later, the mice were injected with an additional dose of SB202190 and fasted overnight. The livers were assayed for nuclear FoxO1, nucleophosmin, p-MK2, total MK-2, and β-actin. The correlation between nuclear FoxO1 and p-MK2 band intensities is shown in the graph. FIG. 32E Adeno-GFP-FoxO1-transduced HCs were serum-depleted overnight, and then incubated for 5 h in serum-free media with SB202190 or vehicle (Veh) control. FoxO1 localization was assessed by indirect immunofluorescence (Bar, 10 μm; *P<0.05; mean±S.E.M.).\nFIGS. 53A-B. MK-2 regulates hepatic FoxO1 subcellular localization and hepatic G6Pc and Pck1. FIG. 53A. Adeno-GFP-FoxO1-transduced HCs were serum-depleted overnight, and then incubated for 30 min in serum-free media with 2 uM MK-2 inhibitor or vehicle (Veh) control. FoxO1 localization was assessed by indirect immunofluorescence (Bar, […]; *P<0.005; mean±S.E.M.). FIG. 53B WT HCs were serum-depleted overnight and then incubated for 5 h with 100 nm glucagon in serum-free media with or without MK-2 inhibitor. RNA was assayed for G6pc and Pck1 mRNA (*P<0.005; mean±S.E.M.). MK-2 Inhibitor is from Calbiochem (cat#475864): 2-(2-Quinolin-3-ylpyridin-4-yl)-1,5,6,7-tetrahydro-4H-pyrrolo-[3,2-c]pyridin-4-one.\nFIG. 69. MK-2 inhibitor suppresses forskolin-induced Pck1 and G6Pc induction in primary hepatocytes. Primary hepatocytes from WT mice were serum-depleted overnight and then pre-treated with 300 nM MK-2 inhibitor (compound 28) or vehicle for 1 h. Cells were then treated with 2 μM forskolin in serum-free media with or without the inhibitor for 4 h. RNA was assayed for G6pc and Pck1 mRNA by RT-qPCR. *, P<0.0001.\nPrimary mouse HCs were isolated from 8- to 12-week-old mice as described previously (Matsumoto et al., 2002). For most experiments, the HCs were serum-depleted overnight by incubation in medium containing 0.5% fetal calf serum and were then incubated for 5 h in serum-free media, with individual treatments noted in the figure legends. HCs were transduced with adenoviral constructs 12 h after plating, and experiments were conducted 24 h after transduction. Transfections with WT, 7A- and 9A-Foxo1 were carried out using jetPEI™-hepatocyte DNA transfection reagent (Polyplus-transfection, Inc.) according to manufacturer's instructions.\nImmunoblot and RT-qPCR assays were performed as previously described (Timmins et al., 2009). Total RNA was extracted from HCs using the RNeasy kit (Qiagen). cDNA was synthesized from 2 μg total RNA using oligo (dT) and Superscript II (Invitrogen). Nuclear extraction from liver was performed using the Nuclear Extraction Kit from Panomics according to the manufacturer's instructions. […] Whether their origin is alternative splicing or post-translational modification remains to be determined."}, "CRTC2": {"system": "CRTC2", "assay": "CRTC2 dephosphorylation and nuclear translocation in primary hepatocytes", "assay_type": "cell-based, mouse", "details": "inhibitor pre-treatment 1 h, glucagon 100 nM", "method": "as §1\nImmunoblot, immunoprecipitation, and immunostaining assays were performed as described (18). CRTC2, pCREB (Ser133), CREB, pAKT (Thr308), AKT, tubulin, HA, and FLAG antibodies were previously described (18). The antibodies anti-InsP3R1 (A302-158A) and InsP3R3 (A302-160A) were purchased from Bethyl Laboratories, anti-InsP3R2 (ab77838) from Abcam, anti-Calcineurin (610260) from BD Biosciences, anti-GRP78 (ADI-SPA-826-F) from Enzo Life Sciences, anti-phospho-PKA substrate (RRXS/T, 9624), anti-phospho-AKT substrate (RXXS/T, 9614) and CRTC2 (pS171, 2892) from Cell Signaling. CRTC2 (pS275) antibody was employed as described (19)."}, "IP3R": {"system": "IP3R", "assay": "IICR in freshly isolated peritoneal cavity macrophages of Xestospongin C-treated ob/ob mice", "assay_type": "in vivo, mouse", "details": "treatment of ob/ob mice", "source_text": "FIGS. 50A-M. The role of IP3R in obesity/insulin resistance induced hyperglycemia and gluconeogenesis. FIG. 50A. Evidence that Xestospongin C Treatment of ob/ob Mice Inhibits IP3R Assay of IICR in Freshly Isolated Peritoneal Cavity Macrophages. FIG. 50B-E. Inhibition of IP3R Reduces Fasting Blood Glucose Levels in ob/ob Mice. FIG. 50F. Inhibition of IP3R Reduces Hepatic Expression of PEPCK, G6Pase, and PGC1α in ob/ob. FIG. 50G-I. Inhibition of IP3R Reduces Expression of PEPCK, G6Pase, and PGC1α in Palmitate-Treated Hepatocytes as a Model of ER Stress and Insulin Resistance. FIG. 50J-K. Inhibition of IP3R Reduces Expression of G6Pase and PEPCK in Akt-Inhibited Hepatocytes as a Model of Insulin Resistance. FIG. 50L. IP3R Activity is Required for Forskolin-Induced TORC2 Dephosphorylation. FIG. 50M. IP3R Activation is Required for TORC2 Nuclear Retention."}}}
{"smiles": "C1CCC[C@H]2CCCN3CC[C@@H](CCCCCC[C@@H]4CCCN5CC[C@@H](CC1)O[C@@H]45)O[C@@H]23", "note": "[Xestospongin C]", "values": [{"measurement": "calcineurin activation in response to glucagon and forskolin", "setting": "calcineurin", "value": "disrupted"}, {"measurement": "induction of the gluconeogenic program", "setting": "G6pc and Pck1 mRNA", "value": "blocked"}, {"measurement": "glucagon-induced dephosphorylation (and nuclear translocation) of CRTC2", "setting": "CRTC2", "value": "blocked"}, {"measurement": "IP3R (IICR) in peritoneal cavity macrophages", "setting": "IP3R", "value": "Inhibits"}]}
